Values quoted from earlier work as cited in patent US20190216738A1, “PIRFENIDONE-CONTAINING TABLET AND CAPSULE FORMULATION” (Laurus Labs Ltd, priority 2018, published 2019).

Compound: Cc1ccc(=O)n(-c2ccccc2)c1 [Pirfenidone]
- solubility (1.0 N HCl, water and 1.0 N NaOH): sparingly soluble
- dissolution in water (solubility) (water, 25° C., pH independent): 19 mg/mL
